Literature values, collected in patent US11045513B2, “Association of dry extracts of Vicia faba, Uncaria rhyncophylla and liquorice root together with coenzyme Q10 for use as coadjuvant, for improving the quality of life in subjects suffering from movement disorders” (CRISTALFARMA S.R.L., priority 2018, dated 2021).

Biological target: dopamine D3 receptor (DRD3) (Homo sapiens, UniProt P35462)
Sequence (P35462 whole entry): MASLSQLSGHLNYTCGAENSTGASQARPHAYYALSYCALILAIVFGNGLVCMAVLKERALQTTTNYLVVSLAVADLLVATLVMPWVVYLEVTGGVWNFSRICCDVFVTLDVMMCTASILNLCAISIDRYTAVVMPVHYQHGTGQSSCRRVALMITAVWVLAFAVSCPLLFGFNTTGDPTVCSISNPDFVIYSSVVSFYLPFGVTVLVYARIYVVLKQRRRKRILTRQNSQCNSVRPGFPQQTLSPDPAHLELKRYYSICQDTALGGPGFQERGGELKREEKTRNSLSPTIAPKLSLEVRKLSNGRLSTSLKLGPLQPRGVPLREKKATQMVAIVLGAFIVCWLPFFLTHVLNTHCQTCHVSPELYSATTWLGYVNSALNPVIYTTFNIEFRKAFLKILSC

- binding affinity for the dopamine D3 receptor (DRD3): strong binding affinity
Compound: CC1(C)[C@@H](O)CC[C@]2(C)[C@H]3C(=O)C=C4[C@@H]5C[C@@](C)(C(=O)O)CC[C@]5(C)CC[C@@]4(C)[C@]3(C)CC[C@@H]12 [glycyrrhetinic acid]
